Test results published in US10959432B2, “Microbiocidal oxadiazole derivatives” (Syngenta Participations AG, priority 2016, dated 2021).

Key:
[1] = tested on: Puccinia recondita f. sp. tritici; test: Fungicidal activity against Puccinia recondita f. sp. tritici / wheat / leaf disc preventative (brown rust); format: in vivo; conditions: foliar, 200 ppm in the applied formulation, wheat leaf segments cv. Kanzler, preventative (inoculated 1 day after application), assessed 7 to 9 days after application, read-out: disease control compared to untreated control leaf disks
Procedure, shortened: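 Preventative leaf-segment test: compound sprayed at 200 ppm onto wheat (cv. Kanzler) segments, brown rust spores applied 1 day after. Kept at 19C and 75% rh under 12 h light/dark cycles; disease control versus untreated check read 7 to 9 days post-application.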

Phakopsora pachyrhizi = test: Fungicidal activity against Phakopsora pachyrhizi / soybean / leaf disc preventative (Asian soybean rust); format: in vivo; conditions: foliar, 200 ppm in the applied formulation, soybean leaf disks, preventative (inoculated one day after application), assessed 12 to 14 days after application, read-out: disease control compared to untreated control leaf disks
Procedure, shortened: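 Preventative test: compound applied to soybean leaf discs a day before spore inoculation of the lower surface. Discs kept at 20° C and 75% rh, first 24-36 h in darkness, then under 12 h light/day; disease control relative to untreated discs rated 12 to 14 days post-application.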

[2] = tested on: Glomerella laqenarium (Colletotrichum lagenarium); test: Fungicidal activity against Glomerella lagenarium (Colletotrichum lagenarium) liquid culture / cucumber / preventative (anthracnose); format: cell-based; conditions: Colletotrichum orbiculare; 20 ppm in the applied formulation; liquid culture in PDB, 24° C., 3 to 4 days after application; read-out: disease control compared to untreated control (inhibition of growth measured photometrically)
Procedure, shortened: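 Test compound, applied from DMSO solution, is combined with PDB containing conidia taken from cryogenic storage. After 3–4 days at 24 °C, growth is measured photometrically and antifungal activity expressed as percent relative to untreated control.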

Uromyces viciae-fabae = test: Fungicidal activity against Uromyces viciae-fabae / field bean / leaf disc preventative (faba-bean rust); format: in vivo; conditions: foliar, 288 h, 100 ppm in the applied formulation, field bean leaf discs, preventative (inoculated two hours after application), assessed 12 days after application, read-out: disease control compared to untreated control leaf discs
Experimental: Leaf disks or leaf segments of various plant species are cut from plants grown in a greenhouse. The cut leaf disks or segments are placed in multiwell plates (24-well format) onto water agar. The leaf disks are sprayed with a test solution before (preventative) or after (curative) inoculation. Compounds to be tested are prepared as DMSO solutions (max. 10 mg/ml) which are diluted to the appropriate concentration with 0.025% Tween20 just before spraying. The inoculated leaf disks or segments are incubated under defined conditions (temperature, relative humidity, light, etc.) according to the respective test system. A single evaluation of disease level is carried out 3 to 14 days after inoculation, depending on the pathosystem. Percent disease control relative to the untreated check leaf disks or segments is then calculated. General Examples of Liquid Culture Tests in Well Plates:
Example 5: Fungicidal Activity Against Uromyces viciae-fabae/Field Bean/Leaf Disc Preventative (Faba-Bean Rust)
Field bean leaf discs are placed on water agar in multiwell plates (96-well format) and 10 μl of the formulated test compound diluted in acetone and a spreader pipetted onto the leaf disc. Two hours after application leaf discs are inoculated by spraying a spore suspension on the lower leaf surface. The leaf discs are incubated in a climate cabinet at 22° C. with 18 hour day and 70% relative humidity. The activity of a compound is assessed as percent disease control compared to untreated when an appropriate level of disease damage appears in untreated check leaf disks (12 days after application).
The following compounds at 100 ppm in the applied formulation give at least 80% disease control in this test when compared to untreated control leaf discs under the same conditions, which show extensive disease development.

[3] = tested on: Puccinia recondita f. sp. tritici; test: Fungicidal activity against Puccinia recondita f. sp. tritici / wheat / leaf disc curative (brown rust); format: in vivo; conditions: foliar, 200 ppm in the applied formulation, wheat leaf segments cv. Kanzler, curative (applied 1 day after inoculation), assessed 6 to 8 days after application, read-out: disease control compared to untreated control leaf disks
Procedure, shortened: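 Curative test: compound, diluted from DMSO stock into water, applied one day after spore inoculation of wheat (cv. Kanzler) leaf segments kept on agar in darkness at 19° C. and 75% RH. Climate-cabinet incubation (19° C., 75% RH, 12 h photoperiod); disease control relative to untreated read 6–8 days post-application.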

COC(=O)CNC(=O)c1ccc(-c2noc(C(F)(F)F)n2)cc1 [Compound 3a.4, methyl 2-[[4-[5-(trifluoromethyl)-1,2,4-oxadiazol-3-yl]benzoyl]amino]acetate]
≥ 80%: pest or weed control at 200 ppm [1] | pest or weed control at 200 ppm (Phakopsora pachyrhizi) | inhibition at 20 ppm [2] | pest or weed control at 100 ppm (Uromyces viciae-fabae)

O=C(NC1CCCC1(F)F)c1ccc(-c2noc(C(F)(F)F)n2)cc1F (stereo not shown) [Compound 2b.17, N-(2,2-difluorocyclopentyl)-2-fluoro-4-[5-(trifluoromethyl)-1,2,4-oxadiazol-3-yl]benzamide]
≥ 80%: pest or weed control at 200 ppm [1] | pest or weed control at 200 ppm [3] | pest or weed control at 200 ppm (Phakopsora pachyrhizi) | pest or weed control at 100 ppm (Uromyces viciae-fabae)

O=C(NCC1CCC1)c1ccc(-c2noc(C(F)(F)F)n2)cc1F [Compound 2b.11, N-(cyclobutylmethyl)-2-fluoro-4-[5-(trifluoromethyl)-1,2,4-oxadiazol-3-yl]benzamide]
≥ 80%: pest or weed control at 200 ppm [1] | pest or weed control at 200 ppm [3] | pest or weed control at 200 ppm (Phakopsora pachyrhizi) | pest or weed control at 100 ppm (Uromyces viciae-fabae)

O=C(Nc1cn[nH]c1)c1ccc(-c2noc(C(F)(F)F)n2)cc1F [Compound 5b.7, 2-fluoro-N-(1H-pyrazol-4-yl)-4-[5-(trifluoromethyl)-1,2,4-oxadiazol-3-yl]benzamide]
≥ 80%: pest or weed control at 200 ppm [1] | pest or weed control at 200 ppm (Phakopsora pachyrhizi) | inhibition at 20 ppm [2] | pest or weed control at 100 ppm (Uromyces viciae-fabae)

O=C(Nc1nc(Br)n[nH]1)c1ccc(-c2noc(C(F)(F)F)n2)cc1F [Compound 5b.10, N-(3-bromo-1H-1,2,4-triazol-5-yl)-2-fluoro-4-[5-(trifluoromethyl)-1,2,4-oxadiazol-3-yl]benzamide]
≥ 80%: pest or weed control at 200 ppm [1] | inhibition at 20 ppm [2] | pest or weed control at 100 ppm (Uromyces viciae-fabae)

O=C(NCCCCc1ccccc1)c1ccc(-c2noc(C(F)(F)F)n2)cc1F [Compound 4b.10, 2-fluoro-N-(4-phenylbutyl)-4-[5-(trifluoromethyl)-1,2,4-oxadiazol-3-yl]benzamide]
≥ 80%: pest or weed control at 200 ppm (Phakopsora pachyrhizi) | inhibition at 20 ppm [2] | pest or weed control at 100 ppm (Uromyces viciae-fabae)

O=C(NCC1COCCO1)c1ccc(-c2noc(C(F)(F)F)n2)cc1Cl (stereo not shown) [Compound 1b.13, 2-chloro-N-(1,4-dioxan-2-ylmethyl)-4-[5-(trifluoromethyl)-1,2,4-oxadiazol-3-yl]benzamide]
≥ 80%: pest or weed control at 200 ppm [1] | pest or weed control at 200 ppm [3] | pest or weed control at 100 ppm (Uromyces viciae-fabae)

O=C(NCC1CCOC1)c1ccc(-c2noc(C(F)(F)F)n2)cc1Cl (stereo not shown) [Compound 1b.14, 2-chloro-N-(tetrahydrofuran-3-ylmethyl)-4-[5-(trifluoromethyl)-1,2,4-oxadiazol-3-yl]benzamide]
≥ 80%: pest or weed control at 200 ppm [1] | pest or weed control at 200 ppm (Phakopsora pachyrhizi) | inhibition at 20 ppm [2] | pest or weed control at 100 ppm (Uromyces viciae-fabae)

O=C(NCCc1cccs1)c1ccc(-c2noc(C(F)(F)F)n2)cc1Cl [Compound 5b.18, 2-chloro-N-[2-(2-thienyl)ethyl]-4-[5-(trifluoromethyl)-1,2,4-oxadiazol-3-yl]benzamide]
≥ 80%: pest or weed control at 200 ppm [1] | inhibition at 20 ppm [2] | pest or weed control at 100 ppm (Uromyces viciae-fabae)

COC(=O)C1(NC(=O)c2ccc(-c3noc(C(F)(F)F)n3)cc2)CCCN(OC)C1 (stereo not shown) [Compound 1a.8, methyl 1-methoxy-3-[[4-[5-(trifluoromethyl)-1,2,4-oxadiazol-3-yl]benzoyl]amino]piperidine-3-carboxylate]
≥ 80%: pest or weed control at 200 ppm [3] | pest or weed control at 100 ppm (Uromyces viciae-fabae)

CN(C(=O)c1ccc(-c2noc(C(F)(F)F)n2)cc1)C1CCOC1 (stereo not shown) [Compound 1a.7, N-methyl-N-tetrahydrofuran-3-yl-4-[5-(trifluoromethyl)-1,2,4-oxadiazol-3-yl]benzamide]
≥ 80%: pest or weed control at 200 ppm [1] | pest or weed control at 200 ppm [3] | pest or weed control at 100 ppm (Uromyces viciae-fabae)

CN(C(=O)c1ccc(-c2noc(C(F)(F)F)n2)cc1F)C1CCOC1 (stereo not shown) [Compound 1b.7, 2-fluoro-N-methyl-N-tetrahydrofuran-3-yl-4-[5-(trifluoromethyl)-1,2,4-oxadiazol-3-yl]benzamide]
≥ 80%: pest or weed control at 200 ppm [3] | pest or weed control at 100 ppm (Uromyces viciae-fabae)

CC(NC(=O)c1ccc(-c2noc(C(F)(F)F)n2)cc1F)C1(C)OCCO1 (stereo not shown) [Compound 1b.12, 2-fluoro-N-[1-(2-methyl-1,3-dioxolan-2-yl)ethyl]-4-[5-(trifluoromethyl)-1,2,4-oxadiazol-3-yl]benzamide]
≥ 80%: pest or weed control at 200 ppm [3] | pest or weed control at 100 ppm (Uromyces viciae-fabae)

O=C(NC1(C2CC2)CC1)c1ccc(-c2noc(C(F)(F)F)n2)cc1F [Compound 2b.6, N-(1-cyclopropylcyclo-propyl)-2-fluoro-4-[5-(trifluoromethyl)-1,2,4-oxadiazol-3-yl]benzamide]
≥ 80%: pest or weed control at 200 ppm (Phakopsora pachyrhizi) | inhibition at 20 ppm [2] | pest or weed control at 100 ppm (Uromyces viciae-fabae)

CCOc1ccc(CN(C(=O)c2ccc(-c3noc(C(F)(F)F)n3)cc2F)C(C)C)cc1OCC [Compound 4b.11, N-[(3,4-diethoxyphenyl)methyl]-2-fluoro-N-isopropyl-4-[5-(trifluoromethyl)-1,2,4-oxadiazol-3-yl]benzamide]
≥ 80%: pest or weed control at 200 ppm [1] | inhibition at 20 ppm [2] | pest or weed control at 100 ppm (Uromyces viciae-fabae)

CCN1CCC[C@@H]1CNC(=O)c1ccc(-c2noc(C(F)(F)F)n2)cc1F [Compound 1b.1, N-[[(2R)-1-ethylpyrrolidin-2-yl]methyl]-2-fluoro-4-[5-(trifluoromethyl)-1,2,4-oxadiazol-3-yl]benzamide]
≥ 80%: pest or weed control at 200 ppm [1] | pest or weed control at 200 ppm (Phakopsora pachyrhizi) | pest or weed control at 100 ppm (Uromyces viciae-fabae)

CN(C(=O)c1ccc(-c2noc(C(F)(F)F)n2)cc1)C1CCSC1 (stereo not shown) [Compound 1a.9, N-methyl-N-tetra-hydrothiophen-3-yl-4-[5-(trifluoromethyl)-1,2,4-oxadiazol-3-yl]benzamide]
≥ 80%: pest or weed control at 200 ppm [3] | pest or weed control at 100 ppm (Uromyces viciae-fabae)

CN(CC1CCCCO1)C(=O)c1ccc(-c2noc(C(F)(F)F)n2)cc1F (stereo not shown) [Compound 1b.10, 2-fluoro-N-methyl-N-(tetrahydropyran-2-ylmethyl)-4-[5-(trifluoromethyl)-1,2,4-oxadiazol-3-yl]benzamide]
≥ 80%: pest or weed control at 200 ppm [3] | pest or weed control at 100 ppm (Uromyces viciae-fabae)

C#CC1(NC(=O)c2ccc(-c3noc(C(F)(F)F)n3)cc2F)CCCCC1 [Compound 2b.2, N-(1-ethynylcyclohexyl)-2-fluoro-4-[5-(trifluoromethyl)-1,2,4-oxadiazol-3-yl]benzamide]
≥ 80%: pest or weed control at 200 ppm (Phakopsora pachyrhizi) | inhibition at 20 ppm [2] | pest or weed control at 100 ppm (Uromyces viciae-fabae)

O=C(NCCc1cccs1)c1ccc(-c2noc(C(F)(F)F)n2)cc1 [Compound 5a.7, N-[2-(2-thienyl)ethyl]-4-[5-(trifluoromethyl)-1,2,4-oxadiazol-3-yl]benzamide]
≥ 80%: pest or weed control at 200 ppm [1] | pest or weed control at 200 ppm (Phakopsora pachyrhizi) | inhibition at 20 ppm [2] | pest or weed control at 100 ppm (Uromyces viciae-fabae)
